The compounds below were run against mGluR5 (Homo sapiens, UniProt P41594) (assay: inhibition of the glutamate induced elevation of intracellular Ca2+ concentration). Conditions: read-out: mGluR5 Activity inh. at 10 μM [%].
Sequence of mGluR5 (P41594 21-1180 isoform P41594-2 limits assumed): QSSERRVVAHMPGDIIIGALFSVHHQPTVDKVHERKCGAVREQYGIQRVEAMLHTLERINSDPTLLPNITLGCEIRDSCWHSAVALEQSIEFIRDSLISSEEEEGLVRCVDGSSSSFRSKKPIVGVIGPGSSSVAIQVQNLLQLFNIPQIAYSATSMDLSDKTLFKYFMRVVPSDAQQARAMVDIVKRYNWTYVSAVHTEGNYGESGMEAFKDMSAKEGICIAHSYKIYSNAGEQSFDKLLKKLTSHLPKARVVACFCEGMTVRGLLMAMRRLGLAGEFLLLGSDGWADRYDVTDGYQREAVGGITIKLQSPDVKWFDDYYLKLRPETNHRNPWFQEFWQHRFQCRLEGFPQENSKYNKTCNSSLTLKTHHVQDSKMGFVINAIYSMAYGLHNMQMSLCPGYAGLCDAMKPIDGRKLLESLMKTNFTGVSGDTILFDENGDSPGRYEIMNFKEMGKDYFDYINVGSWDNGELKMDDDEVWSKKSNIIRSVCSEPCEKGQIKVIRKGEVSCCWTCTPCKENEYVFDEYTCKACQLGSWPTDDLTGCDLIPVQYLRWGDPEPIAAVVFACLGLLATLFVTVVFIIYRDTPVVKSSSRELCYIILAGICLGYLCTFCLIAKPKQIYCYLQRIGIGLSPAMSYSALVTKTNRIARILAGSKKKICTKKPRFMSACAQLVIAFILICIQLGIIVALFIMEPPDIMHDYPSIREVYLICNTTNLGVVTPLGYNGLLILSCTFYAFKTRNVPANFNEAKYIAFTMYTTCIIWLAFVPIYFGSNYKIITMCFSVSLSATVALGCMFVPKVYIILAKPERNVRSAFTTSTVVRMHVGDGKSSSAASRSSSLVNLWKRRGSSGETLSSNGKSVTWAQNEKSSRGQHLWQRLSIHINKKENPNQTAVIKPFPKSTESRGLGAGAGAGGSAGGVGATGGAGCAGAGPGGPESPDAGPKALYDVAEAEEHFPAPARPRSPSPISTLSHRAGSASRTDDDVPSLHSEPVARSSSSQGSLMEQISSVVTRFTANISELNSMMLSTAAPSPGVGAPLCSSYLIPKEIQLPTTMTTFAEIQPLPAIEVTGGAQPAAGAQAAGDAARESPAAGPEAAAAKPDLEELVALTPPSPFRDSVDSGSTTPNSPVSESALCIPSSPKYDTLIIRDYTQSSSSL
Excerpt: This can be determined in vitro for example at recombinant human metabotropic glutamate receptors, especially PLC-coupled subtypes thereof such as mGluR5, using different procedures like, for example, measurement of the inhibition of the agonist induced elevation of intracellular Ca^2+ concentration in accordance with L. P. Daggett et al., Neuropharm.

inhibition at 10 µM [%] | Structure (SMILES)
98 | COc1cc(C(=O)N2CCCCC2)cnc1Nc1ccc(C)nc1 [Compound 6.4, [5-Methoxy-6-(6-methyl-pyridin-3-ylamino)-pyridin-3-yl]-piperidin-1-yl-methanone]
33 | CCOc1cc(C(=O)N2CCCCCC2)cnc1Nc1ccc(Cl)cc1 [Compound 6.5, Azepan-1-yl-[6-(4-chloro-phenylamino)-5-ethoxy-pyridin-3-yl]-methanone]
54 | CCOc1cc(C(=O)N2CCCCCC2)cnc1Nc1ccc(C)nc1 [Compound 6.6, Azepan-1-yl-[5-ethoxy-6-(6-methyl-pyridin-3-ylamino)-pyridin-3-yl]-methanone]
35 | CCOc1cc(C(=O)N2CCCCC2)cnc1Nc1ccc(C)nc1 [Compound 6.7, [5-Ethoxy-6-(6-methyl-pyridin-3-ylamino)-pyridin-3-yl]-piperidin-1-yl-methanone]
98 | CC1CCCN(C(=O)c2cnc(Nc3ccc(Cl)nc3)c(Cl)c2)C1 (centres unmarked) [Compound 7.1, [5-Chloro-6-(6-chloro-pyridin-3-ylamino)-pyridin-3-yl]-(3-methyl-piperidin-1-yl)-methanone]
91 | O=C(c1ccc(Nc2ccc(Cl)cc2)nn1)N1CCCCC1 [Compound 8.1, [6-(4-Chloro-phenylamino)-pyridazin-3-yl]-piperidin-1-yl-methanone]
82 | CC1(C)CCCN(C(=O)c2ccc(Nc3ccc(Cl)cc3)nn2)C1 [Compound 8.3, [6-(4-Chloro-phenylamino)-pyridazin-3-yl]-(3,3-dimethyl-piperidin-1-yl)-methanone]
89 | O=C(c1ccc(Nc2ccc(Cl)cc2)nn1)N1CCc2ccccc2C1 [Compound 8.4, [6-(4-Chloro-phenylamino)-pyridazin-3-yl]-(3,4-dihydro-1H-isoquinolin-2-yl)-methanone]
86 | CC1CCN(C(=O)c2ccc(Nc3ccc(Cl)cc3)nn2)CC1 [Compound 8.5, [6-(4-Chloro-phenylamino)-pyridazin-3-yl]-(4-methyl-piperidin-1-yl)-methanone]
97 | Cc1ccc(Nc2ncc(C(=O)N3CCCCC3)cc2C)cn1 [Compound 9.1, [5-Methyl-6-(6-methyl-pyridin-3-ylamino)-pyridin-3-yl]-piperidin-1-yl-methanone]
99 | Cc1ccc(Nc2ncc(C(=O)N3CCCCC3)cc2F)cn1 [Compound 9.2, [5-Fluoro-6-(6-methyl-pyridin-3-ylamino)-pyridin-3-yl]-piperidin-1-yl-methanone]

Reference: patent US20090005363A1, “Organic Compounds” (priority 2005, published 2009)
